In patent EP0242482B1, “Antiviral purine derivatives and process for their preparation” (BEECHAM GROUP PLC, priority 1985, dated 1987):
≈ marks a conversion by molar mass, not a printed value. Like-named read-outs stand apart in the source and are kept apart here.

Legend:
[1] = tested on: herpes simplex virus 1, strain SC16; assay: CPE inhibition test (replicating cells) for herpes simplex virus 1; type: cell-based; conditions: Human alphaherpesvirus 1, SC16, MRC5, SC16 strain in MRC-5 cells; each figure is the value obtained in a single test; read-out: IC₅₀ Herpes Simplex Type 1 virus SC16 strain in MRC-5 cells
Text: MRC-5 cells (in Eagles MEM containing 5% newborn calf serum) were infected in suspension with herpes simplex virus 1, strain SC16 (approximately one infectious particle per 10 cells). One hundred microlitres of the infected cell suspension (containing approximately 2 x 10⁴ cells) were dispensed into each well of a 96 well microtitre plate containing an equal volume of the test drug in medium (Eagles MEM containing 5% newborn calf serum) at concentrations ranging from 200 to 0.09»g/ml (3-fold dilution steps); final concentrations therefore ranged between 100 to 0.045»g/ml. The plates were then incubated at 37°C in a humidified atmosphere of 5% CO₂ for 3 days when the virus-induced cytopathic effect (CPE) in the control wells reached 100%. The plates were fixed in formal saline and stained with carbol fuchsin. […] Plates of uninfected cells were set up in parallel to determined the minimum concentration of test compound which caused cytotoxicity.

[2] = tested on: visna virus (strain K184); assay: CPE inhibition test (established monolayer) for lentiviruses; type: cell-based; conditions: minimum concentration giving complete protection of the cell monolayers
Protocol: 3 x 10⁴ sheep choroid plexus (SCP) cells were plated into individual wells of a 96 well microtitre plate in 100»l of Eagle's MEM with Hanks salts containing 10% heat inactivated foetal calf serum (FCS). When monolayers had become established (after 1 or 2 days growth) they were washed with 200»l of maintenance medium (Eagle's MEM with Hanks salts containing 0.5% FCS) and infected with 100»l of visna virus (strain K184) in maintenance medium (30 TCID₅₀/ml). Test samples were diluted with maintenance medium in further 96 well microtitre plates over the range 200-0.09»g/ml by 3-fold dilution steps. 100»l of the diluted samples was then transferred directly onto virus-infected monolayers (final concentration range therefore 100-0.045»g/ml) and incubated at 37°C in a humidified, 5% CO₂ incubation until virus-induced CPE was maximal in the untreated virus-infected controls (usually 12-14 days). The plates were fixed with formal saline and stained with crystal violet. Virus-induced CPE was then scored microscopically and the minimum concentration of sample giving complete protection of the cell monolayers (MIC) determined.

[3] = tested on: herpes simplex virus 2 (HSV-2; strain MS); assay: Plaque reduction test for herpes simplex virus 2; type: cell-based, Herpes Simplex Type 2 virus; conditions: each figure is the value obtained in a single test
Protocol: (§1) Cells (Vero or MRC-5) were grown to confluence in 24 well multi-dishes (well diameter = 1.5cm). The drained cell monolayers were each infected with approximately 50 infectious particles of herpes simplex virus 1 (HSV-1; strain HFEM) or herpes simplex virus 2 (HSV-2; strain MS) in 100»l of phosphate-buffered saline. The virus was adsorbed for 1 hour at room temperature. After adsorption, residual inoculum was removed from each well and replaced with 0.5ml of Eagle's MEM containing 5% newborn calf serum and 0.9% agarose (A37). Once the agarose had set, dilutions of the test compound, which had been prepared in Eagle's MEM (containing 5% newborn calf serum), were added, each well receiving 0.5ml of liquid overlay. The test compound was diluted to give the following series of concentrations: 200, 60, 20, 6....0.06»g/ml; final concentrations in the assay ranged, therefore, between 100»g/ml and 0.03»g/ml. The infected cultures were incubated at 37°C in a humidified atmosphere of 5% CO₂ until plaques were clearly visible (2 or 3 days for Vero cells, usually 1 day for MRC-5 cells).
(§2) Cultures from 1 and 2 were fixed in formal saline, the agarose overlays were carefully washed off, and then the cell monolayers were stained with carbol fuchsin. A stereo microscope was used to count plaques. The IC₅₀ (concentration of drug which inhibits plaque number by 50% relative to the number of plaques observed in virus control monolayers) of the test compound was calculated. In addition, the monolayers were examined for evidence of drug-induced cytotoxicity; the minimum concentration at which cytotoxicity occurs was recorded.

[4] = tested on: varicella zoster virus (VZV; Ellen strain); assay: Plaque reduction test for varicella zoster virus; type: cell-based; conditions: Human alphaherpesvirus 3, MRC5, Ellen strain in MRC-5 cells; each figure is the value obtained in a single test; read-out: IC₅₀ Varicella Zoster virus Ellen strain in MRC-5 cells
Protocol: MRC-5 cells were grown to confluence in 24 well multi-dishes (well diameter = 1.5cm). The drained cell monolayers were each infected with approximately 50 infectious particles of varicella zoster virus (VZV; Ellen strain) in 100»l of phosphate-buffered saline. The virus was adsorbed for 1 hour at room temperature. After adsorption, residual inoculum was removed from each well and replaced with 0.5ml of Eagle's MEM containing 5% heat-inactivated foetal calf serum and 0.9% agarose (A37). Once the agarose had set, dilutions of the test compound, which had been prepared in Eagle's MEM (containing 5% heat-inactivated foetal calf serum), were added, each well receiving 0.5ml of liquid overlay. The test compound was diluted to give the following series of cencentrations: 200, 60, 20, 6....0.06»g/ml; final concentrations in the assay ranged, therefore, between 100»g/ml and 0.03»g/ml. The infected cultures were incubated at 37°C in a humidified atmosphere of 5% CO₂ until plaques were clearly visible (5 or 6 days).
as §2

[5] = tested on: herpes simplex virus 1 (HSV-1; strain HFEM); assay: Plaque reduction test for herpes simplex virus 1; type: cell-based; conditions: Human alphaherpesvirus 1, Vero, HFEM strain in Vero cells; each figure is the value obtained in a single test; read-out: IC₅₀ Herpes Simplex Type 1 virus HFEM strain in Vero cells
Protocol: as §1, §2

[6] = Human alphaherpesvirus 2, MRC5, MS strain in MRC-5 cells, read-out: IC₅₀ Herpes Simplex Type 2 virus MS strain in MRC-5 cells
[7] = Human alphaherpesvirus 2, Vero, MS strain in Vero cells, read-out: IC₅₀ Herpes Simplex Type 2 virus MS strain in Vero cells

In the case of `Nc1nc2c(ncn2OC(CO)CCO)c(=O)[nH]1` (stereo not shown) [Example 8, 9-(1,4-Dihydroxybut-2-oxy)guanine], the IC50 [1] is reported as 11 µg/mL (≈ 43.1 µM) and the “MIC Visna Virus K184 strain in SCP cells” value [2] is reported as 30 »g/ml.

Work on `Nc1nc2c(ncn2O[C@@H](CO)CCO)c(=O)[nH]1` [Example 14, (R)-9-(1,4-Dihydroxybut-2-oxy)guanine] yielded an IC50 [1] of 100 µg/mL (≈ 392 µM).

In the case of `CCOc1nc(N)nc2c1ncn2OCCCO` [Example 4, 2-Amino-6-ethoxy-9-(3-hydroxyprop-1-oxy)purine], the IC50 [1] is reported as 100 µg/mL (≈ 395 µM), the IC50 [3, 6] is reported as 67 µg/mL (≈ 265 µM) and the IC50 [4] is reported as 21 µg/mL (≈ 82.9 µM).

With `Nc1nc2c(ncn2OCCCOC(=O)c2ccccc2)c(=O)[nH]1` [Example 3, 9-(3-Benzoyloxyprop-1-oxy)guanine] the IC50 [5] was 2.8 µg/mL (≈ 8.5 µM), the IC50 [1] was 1.2 µg/mL (≈ 3.64 µM) and the IC50 [3, 6] was 2.1 µg/mL (≈ 6.38 µM).

`Nc1nc2c(ncn2O[C@H](CO)CCO)c(=O)[nH]1` [Example 15, (S)-9-(1,4-Dihydroxybut-2-oxy)guanine] gave an IC50 [1] of 7.4 µg/mL (≈ 29 µM).

Work on `Nc1nc2c(ncn2OCCCO)c(=O)[nH]1` [Example 1, 9-(3-Hydroxyprop-1-oxy)guanine] yielded an IC50 [5] of 0.4 µg/mL (≈ 1.78 µM), an IC50 [3, 6] of 0.1 µg/mL (≈ 0.444 µM) and an IC50 [3, 7] of 0.3 µg/mL (≈ 1.33 µM). The “MIC Visna Virus K184 strain in SCP cells” value [2] was 3.0 »g/ml.

Work on `Nc1nc2c(ncn2OCC(CO)CO)c(=O)[nH]1` [Example 5, 9-(3-Hydroxy-2-hydroxymethylprop-1-oxy)guanine] yielded an IC50 [5] of 1.5 µg/mL (≈ 5.88 µM), an IC50 [1] of 1.8 µg/mL (≈ 7.05 µM) and an IC50 [3, 6] of 1.5 µg/mL (≈ 5.88 µM). The IC50 [3, 7] was 1.5 µg/mL (≈ 5.88 µM), the IC50 [4] was 2.9 µg/mL (≈ 11.4 µM) and the “MIC Visna Virus K184 strain in SCP cells” value [2] was 0.1 »g/ml.

In the case of `CCCCCC(=O)OCCCOn1cnc2c(=O)[nH]c(N)nc21` [Example 11, 9-(3-Hexanoyloxyprop-1-oxy)guanine], the IC50 [5] is reported as 0.7 µg/mL (≈ 2.16 µM), the IC50 [1] is reported as 0.1 µg/mL (≈ 0.309 µM) and the IC50 [4] is reported as 0.1 µg/mL (≈ 0.309 µM).

Work on `CC(=O)OCCCOn1cnc2c(=O)[nH]c(N)nc21` [Example 2, 9-(3-Acetoxyprop-1-oxy)guanine] yielded an IC50 [5] of 4.3 µg/mL (≈ 16.1 µM), an IC50 [1] of 0.4 µg/mL (≈ 1.5 µM) and an IC50 [3, 6] of 1.1 µg/mL (≈ 4.12 µM).

For `Nc1nc2c(ncn2OCC(O)CO)c(=O)[nH]1` (stereo not shown) [Example 6, 9-(2,3-Dihydroxyprop-1-oxy)guanine], the IC50 [5] was 8.6 µg/mL (≈ 35.7 µM), the IC50 [1] was 1.9 µg/mL (≈ 7.88 µM) and the IC50 [3, 6] was 0.7 µg/mL (≈ 2.9 µM). The IC50 [3, 7] was 1.6 µg/mL (≈ 6.63 µM), the IC50 [4] was 2.3 µg/mL (≈ 9.54 µM) and the “MIC Visna Virus K184 strain in SCP cells” value [2] was 10 »g/ml.

Compound `Nc1ncc2ncn(OCC(O)CO)c2n1` (stereo not shown) [Example 7, 2-Amino-9-(2,3-dihydroxyprop-1-oxy)purine] has an IC50 [1] of 100 µg/mL (≈ 444 µM) and an IC50 [4] of 57 µg/mL (≈ 253 µM).
